Measured values from patent publication US20230339889A1, “DERIVATIVES OF 2-OXO-N-(4-(PYRIMIDIN-4-YLOXY/THIO)PHENYL)-1,2-DIHYDROPYRIDINE-3-CARBOXAMIDE FOR USE AS PROTEIN KINASE INHIBITORS FOR THERAPY” (AUCENTRA THERAPEUTICS PTY LTD, priority 2020, published 2023).

Legend:
MET = molecular target: T1, MET (Homo sapiens, UniProt P08581); experiment: Filter-binding radiometric kinase activity assay (KinaseProfiler, Eurofins); assay type: biochemical; conditions: 1 µM compound; read-out: % Residual enzymatic activity at 1 µM MET
T1 construct: purchased Eurofins Discovery (Kinase Profiler service)

Mer = molecular target: T2, Mer (Homo sapiens, UniProt Q12866); experiment: as above; assay type: biochemical; conditions: 1 µM compound; read-out: % Residual enzymatic activity at 1 µM Mer
T2 construct: purchased Eurofins Discovery (Kinase Profiler service)
T2 sequence (Q12866 21-999): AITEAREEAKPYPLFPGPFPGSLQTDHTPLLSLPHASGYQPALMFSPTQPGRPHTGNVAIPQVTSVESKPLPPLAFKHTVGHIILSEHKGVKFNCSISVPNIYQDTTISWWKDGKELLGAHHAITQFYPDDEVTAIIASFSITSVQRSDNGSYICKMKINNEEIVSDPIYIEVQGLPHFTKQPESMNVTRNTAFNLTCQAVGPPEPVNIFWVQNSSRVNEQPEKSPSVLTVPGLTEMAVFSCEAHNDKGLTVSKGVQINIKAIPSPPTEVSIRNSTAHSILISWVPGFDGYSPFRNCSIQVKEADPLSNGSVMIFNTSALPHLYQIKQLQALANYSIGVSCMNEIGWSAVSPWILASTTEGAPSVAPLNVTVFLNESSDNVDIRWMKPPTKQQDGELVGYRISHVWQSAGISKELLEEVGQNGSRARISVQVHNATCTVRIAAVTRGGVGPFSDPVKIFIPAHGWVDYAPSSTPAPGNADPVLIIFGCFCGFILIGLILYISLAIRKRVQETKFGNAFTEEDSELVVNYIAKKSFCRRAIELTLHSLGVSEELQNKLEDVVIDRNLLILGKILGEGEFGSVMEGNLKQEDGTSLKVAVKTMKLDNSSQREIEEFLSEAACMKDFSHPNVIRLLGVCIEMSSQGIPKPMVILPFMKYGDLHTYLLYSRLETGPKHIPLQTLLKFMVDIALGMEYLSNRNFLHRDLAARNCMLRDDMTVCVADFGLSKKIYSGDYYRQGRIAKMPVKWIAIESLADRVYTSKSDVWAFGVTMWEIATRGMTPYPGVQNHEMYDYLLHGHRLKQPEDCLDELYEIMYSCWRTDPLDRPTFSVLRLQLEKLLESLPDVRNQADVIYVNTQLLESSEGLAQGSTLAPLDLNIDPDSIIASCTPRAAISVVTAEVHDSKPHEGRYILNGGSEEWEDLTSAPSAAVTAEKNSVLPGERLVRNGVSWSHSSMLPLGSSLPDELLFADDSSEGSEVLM

TYRO3 = molecular target: T3, TYRO3 (Homo sapiens, UniProt Q06418); experiment: as above; assay type: biochemical; conditions: 1 µM compound; read-out: % Residual enzymatic activity at 1 µM TYRO3
T3 construct: purchased Eurofins Discovery (Kinase Profiler service)
T3 sequence (Q06418 41-890): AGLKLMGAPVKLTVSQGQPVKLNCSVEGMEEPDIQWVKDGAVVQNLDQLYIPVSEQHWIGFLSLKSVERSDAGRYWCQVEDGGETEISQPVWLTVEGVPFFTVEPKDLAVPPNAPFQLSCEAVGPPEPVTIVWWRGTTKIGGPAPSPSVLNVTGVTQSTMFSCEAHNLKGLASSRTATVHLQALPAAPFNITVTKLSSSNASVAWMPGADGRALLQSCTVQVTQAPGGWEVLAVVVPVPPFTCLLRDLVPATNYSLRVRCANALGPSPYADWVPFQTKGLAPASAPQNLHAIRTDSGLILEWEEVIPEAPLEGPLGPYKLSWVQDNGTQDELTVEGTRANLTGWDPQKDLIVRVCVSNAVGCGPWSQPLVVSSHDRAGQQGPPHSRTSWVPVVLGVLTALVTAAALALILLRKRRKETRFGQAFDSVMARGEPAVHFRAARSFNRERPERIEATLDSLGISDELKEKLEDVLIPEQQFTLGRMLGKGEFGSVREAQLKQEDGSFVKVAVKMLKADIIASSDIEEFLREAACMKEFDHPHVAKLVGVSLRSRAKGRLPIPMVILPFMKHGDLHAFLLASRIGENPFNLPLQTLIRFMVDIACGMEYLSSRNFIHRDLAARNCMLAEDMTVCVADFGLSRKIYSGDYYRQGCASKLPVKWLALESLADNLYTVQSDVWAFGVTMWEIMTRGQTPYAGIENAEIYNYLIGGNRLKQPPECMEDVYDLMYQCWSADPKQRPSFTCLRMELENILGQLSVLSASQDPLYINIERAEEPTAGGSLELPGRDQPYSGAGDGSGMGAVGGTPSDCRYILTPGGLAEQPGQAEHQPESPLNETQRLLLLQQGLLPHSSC

CDK2E = CDK2E (Homo sapiens, UniProt P24941); experiment: ADP Glo Kinase assay; assay type: biochemical; conditions: 1 µM compound; read-out: % Residual enzymatic activity at 1 µM CDK2E
Description: (§1) Inhibition of CDKs and FLT3 were determined using ADP Glo Kinase assays, as previously described in International Patent Publication No WO 2017/020065.

CDK4D1 = CDK4D1 (Homo sapiens, UniProt P11802); experiment: ADP Glo Kinase assay; assay type: biochemical; conditions: 1 µM compound; read-out: % Residual enzymatic activity at 1 µM CDK4D1
Description: as §1

FLT3-ITD = experiment: ADP Glo Kinase assay; assay type: biochemical; conditions: 1 µM compound
Description: as §1

MV4-11 = experiment: Proliferation assay (MTT, leukaemia cancer cell line); assay type: cell-based; conditions: Homo sapiens; 1 µM compound, MV4-11 cells
Text: (§2) Compounds from Example 1 were subjected to standard resazurin and MTT assays on solid tumour and leukaemia cancer cell lines, respectively, as previously reported (Wang S et al., J Med Chem 47:1662-1675, 2004 and Diab S et al., CheMedChem 9:962-972, 2014).

MDA-MB-231 = experiment: Proliferation assay (resazurin, solid tumour cell line); assay type: cell-based; conditions: Homo sapiens; MDA-MB-231 cells
Text: as §2

T1 sequence (P08581 25-1390): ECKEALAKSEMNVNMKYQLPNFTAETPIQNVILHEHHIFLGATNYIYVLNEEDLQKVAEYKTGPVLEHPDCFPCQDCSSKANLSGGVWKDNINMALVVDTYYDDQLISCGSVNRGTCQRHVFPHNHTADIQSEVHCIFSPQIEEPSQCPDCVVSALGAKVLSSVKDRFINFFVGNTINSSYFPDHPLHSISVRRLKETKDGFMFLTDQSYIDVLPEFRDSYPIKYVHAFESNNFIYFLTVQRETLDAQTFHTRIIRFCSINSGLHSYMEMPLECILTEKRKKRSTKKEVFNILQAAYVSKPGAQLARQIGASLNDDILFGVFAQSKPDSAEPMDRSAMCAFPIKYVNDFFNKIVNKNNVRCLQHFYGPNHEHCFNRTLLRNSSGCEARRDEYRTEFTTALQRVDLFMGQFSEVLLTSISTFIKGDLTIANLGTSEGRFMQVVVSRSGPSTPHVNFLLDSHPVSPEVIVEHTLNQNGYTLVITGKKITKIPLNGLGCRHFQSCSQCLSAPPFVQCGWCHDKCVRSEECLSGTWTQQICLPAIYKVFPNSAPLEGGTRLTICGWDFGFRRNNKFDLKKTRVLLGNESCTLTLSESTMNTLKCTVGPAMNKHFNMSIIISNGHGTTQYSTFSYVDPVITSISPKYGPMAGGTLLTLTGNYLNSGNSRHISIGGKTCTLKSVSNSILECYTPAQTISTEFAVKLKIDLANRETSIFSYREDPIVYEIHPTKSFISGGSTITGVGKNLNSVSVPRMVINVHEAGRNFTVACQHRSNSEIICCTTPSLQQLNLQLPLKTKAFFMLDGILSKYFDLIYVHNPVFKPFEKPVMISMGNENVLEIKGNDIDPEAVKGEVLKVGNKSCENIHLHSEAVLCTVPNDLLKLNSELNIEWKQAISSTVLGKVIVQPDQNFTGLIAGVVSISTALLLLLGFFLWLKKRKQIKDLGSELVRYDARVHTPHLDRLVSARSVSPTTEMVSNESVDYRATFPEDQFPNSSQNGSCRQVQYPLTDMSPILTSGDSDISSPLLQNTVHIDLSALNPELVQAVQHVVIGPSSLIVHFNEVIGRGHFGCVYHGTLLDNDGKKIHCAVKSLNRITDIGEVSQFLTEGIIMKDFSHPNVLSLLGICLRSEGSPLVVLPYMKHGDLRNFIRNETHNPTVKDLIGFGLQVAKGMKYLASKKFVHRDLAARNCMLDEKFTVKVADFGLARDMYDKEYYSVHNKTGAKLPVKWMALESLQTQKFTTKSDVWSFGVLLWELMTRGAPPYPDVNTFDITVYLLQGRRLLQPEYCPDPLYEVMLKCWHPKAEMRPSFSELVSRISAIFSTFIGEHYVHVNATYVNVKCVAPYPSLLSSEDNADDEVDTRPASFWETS
CDK4D1, sequence (P11802 whole entry): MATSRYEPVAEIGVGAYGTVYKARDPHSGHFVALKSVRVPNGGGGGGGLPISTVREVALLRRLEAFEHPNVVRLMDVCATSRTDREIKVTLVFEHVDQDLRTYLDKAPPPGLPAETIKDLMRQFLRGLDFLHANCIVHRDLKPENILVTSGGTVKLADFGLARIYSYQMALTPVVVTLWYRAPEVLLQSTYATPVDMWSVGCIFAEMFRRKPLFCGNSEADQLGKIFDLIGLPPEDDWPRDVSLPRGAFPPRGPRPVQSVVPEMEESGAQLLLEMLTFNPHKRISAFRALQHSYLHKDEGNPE
CDK4D1, sequence (P24385 whole entry partner): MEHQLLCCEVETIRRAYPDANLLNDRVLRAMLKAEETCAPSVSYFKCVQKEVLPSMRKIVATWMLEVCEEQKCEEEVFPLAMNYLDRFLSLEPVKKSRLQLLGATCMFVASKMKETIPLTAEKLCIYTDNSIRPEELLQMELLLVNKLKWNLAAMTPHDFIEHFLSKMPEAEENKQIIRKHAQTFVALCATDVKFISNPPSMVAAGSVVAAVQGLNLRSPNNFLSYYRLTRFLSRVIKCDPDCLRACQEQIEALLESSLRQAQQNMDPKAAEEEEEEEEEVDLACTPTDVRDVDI

Row | Compound | remaining activity at 1 µM (MET) | remaining activity at 1 µM (Mer) | remaining activity at 1 µM (TYRO3) | remaining activity at 1 µM (CDK2E) | remaining activity at 1 µM (CDK4D1) | % Residual enzymatic activity at 1 µM FLT3-ITD (FLT3-ITD) | GI50 (MDA-MB-231) | activity at 1 µM (MV4-11)
1 | Nc1ncnc(Oc2ccc(NC(=O)c3cccn(-c4ccc(F)cc4)c3=O)cc2)c1Cl [Cmpd 4, N-(4-((6-amino-5-chloropyrimidin-4-yl)oxy)phenyl)-1-(4-fluorophenyl)-2-oxo-1,2-dihydropyridine-3-carboxamide] | -5% | 19% | 2% | 97% | 48% | 33% | 2.7 µM | 6%
2 | Nc1ncnc(Oc2ccc(NC(=O)c3cccn(-c4ccc(F)cc4)c3=O)cc2F)c1F [Cmpd 1, N-(4-((6-amino-5-fluoropyrimidin-4-yl)oxy)-3-fluorophenyl)-1-(4-fluorophenyl)-2-oxo-1,2-dihydropyridine-3-carboxamide] | 0% | 12% | -1% | 99% | 40% | 50% | 1.2 µM | 3%
3 | Nc1ncnc(Oc2ccc(NC(=O)c3cccn(-c4ccc(F)cc4)c3=O)cc2F)c1Cl [Cmpd 3, N-(4-((6-amino-5-chloropyrimidin-4-yl)oxy)-3-fluorophenyl)-1-(4-fluorophenyl)-2-oxo-1,2-dihydropyridine-3-carboxamide] | -7% | 6% | 0% | 96% | 69% | 49% | 7.9 µM | 3%
4 | Nc1ncnc(Oc2ccc(NC(=O)c3cccn(-c4ccc(F)cc4)c3=O)cc2)c1F [Cmpd 6, N-(4-((6-amino-5-fluoropyrimidin-4-yl)oxy)phenyl)-1-(4-fluorophenyl)-2-oxo-1,2-dihydropyridine-3-carboxamide] | 8% | 14% | 6% | 89% | 69% | 79% | 8.9 µM | 3%

Now from value to compound, other results behind:

Row | remaining activity at 1 µM (MET) | remaining activity at 1 µM (Mer) | remaining activity at 1 µM (TYRO3) | remaining activity at 1 µM (CDK2E) | remaining activity at 1 µM (CDK4D1) | % Residual enzymatic activity at 1 µM FLT3-ITD (FLT3-ITD) | GI50 (MDA-MB-231) | Compound | activity at 1 µM (MV4-11)
5 | -6% | 4% | 5% | 80% | 72% | 40% | 2.3 µM | Nc1ncnc(Oc2ccc(NC(=O)c3cccn(-c4ccc(F)cc4)c3=O)c(F)c2)c1F [Cmpd 7, N-(4-((6-amino-5-fluoropyrimidin-4-yl)oxy)-2-fluorophenyl)-1-(4-fluorophenyl)-2-oxo-1,2-dihydropyridine-3-carboxamide] | 6%
6 | -5% | 0% | 2% | 92% | 72% | 43% | 0.9 µM | Nc1ncnc(Oc2ccc(NC(=O)c3cccn(-c4ccc(F)cc4)c3=O)c(F)c2)c1Cl [Cmpd 5, N-(4-((6-amino-5-chloropyrimidin-4-yl)oxy)-2-fluorophenyl)-1-(4-fluorophenyl)-2-oxo-1,2-dihydropyridine-3-carboxamide] | 6%
